Measured values published in ChEMBL document CHEMBL1151513, “Stereospecific synthesis of chiral acyclic analogues of guanosine” (1992).
Calls of active or inactive are those of the source. The calls are words filed in the database; no cut-off is given here.

What was measured:
[1] = Compound was tested for its in vitro inhibitory effect on the replication of DNA and RNA viruses at 1 mM; No inhibition; type: functional
MT4 [2] = experiment: Compound was tested for its cytotoxic effect against MT-4 cells at 1 mM; 1 to 10 uM; type: functional; details: Homo sapiens, read-out: CD50 (the source's name)
MT4 [3] = experiment: Compound was tested for its cytotoxic effect against MT-4 cells at 1 mM; No effect; type: functional, cell-based; details: Homo sapiens
MT4 [4] = experiment: Compound was tested for its cytotoxic effect against MT-4 cells at 1 mM;value between 10-100 uM; type: functional; details: Homo sapiens, read-out: CD50 (the source's name)

Compound	Activity [1]	CC50 (MT4 [2]) [µM]	Activity (MT4 [3])	CC50 (MT4 [4]) [µM]
Nc1nc(O)c2ncn(C(CCO)OCCO)c2n1 (stereo not drawn)	inactive	< 10		
Nc1nc(O)c2ncn(C(OCCO)C(O)CO)c2n1 (stereo not drawn)	inactive		inactive	
Nc1nc(O)c2ncn(C3CC(O)C(O)CO3)c2n1 (stereo not drawn)	inactive			< 100
Nc1nc(O)c2ncn(C(CO)OCCO)c2n1 (stereo not drawn)	inactive		inactive	
